Laboratory results published in PubChem BioAssay AID2060505 (Molecular Pharmacology Branch, DTP, NCI, 2025).
pIC50: −log10 of the molar value.

Test system: 633275-114-R-J1-PDC complex spheroids, viability
Assay: Anticancer human tumor 633275-114-R-J1-PDC patient-derived endometrial adenocarcinoma cell line growth inhibition [GQUAD]
Conditions: for pIC50: curve of first compound; for viability, T/C: stronger effect = lower value
Source text: DNA G-quadruplex Stabilizer Agents in Combinations in Complex Spheroids
A high-throughput screen of multi-cell type tumor spheroids was designed to identify active combinations of DNA G-quadruplex stabilizer agents and targeted small molecules. Complex spheroids include a stromal component modeled by human endothelial cells (HUVEC) and fibroblasts modeled by human mesenchymal stem cells (MSCs). The concentration ranges selected for each drug and investigational agent were based upon clinically achievable concentrations if the clinical Cmax of the agent was known.
Compounds. The drugs and investigational agents: pidnarulex (CX-5461; NSC782164), APTO-253 (NSC789042), BRACO-19 (NSC847499), peposertib (NSC802822), ceralasertib (NSC780249), elimusertib (NSC800525), camonsertib (NSC841442), AZD-1390 (NSC803789), olaparib (NSC753686), talazoparib (NSC767125), ART-558 (NSC835418), sotorasib (NSC818433), MRTX-1133 (NSC836407), SN-38 (NSC673596), topotecan (NSC609699), etoposide (NSC141540), doxorubicin (NSC123127), gemcitabine (NSC613327), 5-fluorouracil (NSC19893), paclitaxel (NSC125973), vemurafenib (NSC761431), panobinostat (NSC761190), R-306465 (JNJ-16241199; NSC773264), adavosertib (NSC754352), TP-3654 (NSC805149), carboplatin (NSC241240), KSQ-4279 (NSC840948), and staurosporine (NSC755774) were obtained from the National Cancer Institute (NCI) Developmental Therapeutics Program Chemical Repository (34). The FDA-approved anticancer drug set is available from the NCI Developmental Therapeutics Program. […] The stock solutions were prepared in dimethyl sulfoxide (DMSO, Sigma-Aldrich, St. Louis, MO, cat. D2650) at 800-fold the tested concentration and stored at -70 degrees C prior to their use. All drugs and investigational agents were tested over a range starting from a high concentration at or near the clinical Cmax and decreasing in half-log increments. If the clinical Cmax for an agent had not been determined, the highest concentration tested was 10 microM.
2.3 Cell Culture. All cells were maintained in an incubator at 37 degrees C and 5% CO2 with 95% humidity. The PDC lines were cultured according to standard operating procedures established by the NCI PDMR. All PDCs were thawed and cultured in Matrigel-coated flasks prepared with a working solution of 1X Ham's F-12 nutrient mix, without supplementation (Invitrogen, cat. 11765054), 100 U/mL penicillin-streptomycin (Invitrogen, cat. 15140122), and 2.5% Matrigel (Corning Inc., cat. 354248) for the first three passages. The 857933-349-R-J2-PDC line was cultured in 6C/Colon 1B media, which includes advanced DMEM/F-12 (Thermo Fisher Scientific, cat. 12634028), 10 mM HEPES (Thermo Fisher Scientific, cat. 15630080), 1X GlutaMAX supplement (Thermo Fisher Scientific, cat. 35050061), 0.1 mg/mL primocin (InvivoGen, cat. ant-pm-2), 10% defined fetal bovine serum, heat inactivated (HyClone Laboratories Inc., cat. SH30070.03HI), 50% L-WRN conditioned media (ATCC, cat. CRL-3276), 1.25 mM N-Acetyl-L-cysteine (Sigma-Aldrich, cat. A9165), 10 mM nicotinamide (Sigma-Aldrich, cat. N0636), 1X B-27 supplement (Thermo Fisher Scientific, cat. 17504044), 1X N-2 supplement (Thermo Fisher Scientific, cat. 17502048), 10 microM Y-27632 dihydrochloride (Tocris Bioscience, cat. 1254), and 50 ng/mL human EGF recombinant protein (Thermo Fisher Scientific, cat. PHG0311). The 485176-168-R4-J1-PDC line was cultured in Panc media, which includes all 6C/Colon 1B media components plus 100 ng/mL human FGF-10 (Thermo Fisher Scientific, cat. 100-26), 500 nM SB-431542 (Selleckchem, cat. S1067), and gastrin (Tocris, cat. 3006).
[…]

[1] = second compound 0.0316 µM, first compound 0.0316 µM
[2] = second compound 0.0316 µM, first compound 0.1 µM
[3] = second compound 0.0316 µM, first compound 0.316 µM
[4] = second compound 0.0316 µM, first compound 1 µM
[5] = second compound 0.0316 µM, first compound 3.16 µM
[6] = second compound 0.0316 µM, first compound 10 µM
[7] = second compound 0.1 µM, first compound 0.0316 µM
[8] = second compound 0.1 µM, first compound 0.1 µM
[9] = second compound 0.1 µM, first compound 0.316 µM
[10] = second compound 0.1 µM, first compound 1 µM
[11] = second compound 0.1 µM, first compound 3.16 µM
[12] = second compound 0.1 µM, first compound 10 µM
[13] = second compound 0.316 µM, first compound 0.0316 µM
[14] = second compound 0.316 µM, first compound 0.1 µM
[15] = second compound 0.316 µM, first compound 0.316 µM
[16] = second compound 0.316 µM, first compound 1 µM
[17] = second compound 0.316 µM, first compound 3.16 µM
[18] = second compound 0.316 µM, first compound 10 µM
[19] = second compound 1 µM, first compound 0.0316 µM
[20] = second compound 1 µM, first compound 0.1 µM
[21] = second compound 1 µM, first compound 0.316 µM
[22] = second compound 1 µM, first compound 1 µM
[23] = second compound 1 µM, first compound 3.16 µM
[24] = second compound 1 µM, first compound 10 µM
[25] = second compound 3.16 µM, first compound 0.0316 µM
[26] = second compound 3.16 µM, first compound 0.1 µM
[27] = second compound 3.16 µM, first compound 0.316 µM
[28] = second compound 3.16 µM, first compound 1 µM
[29] = second compound 3.16 µM, first compound 3.16 µM
[30] = second compound 3.16 µM, first compound 10 µM
[31] = second compound 10 µM, first compound 0.0316 µM
[32] = second compound 10 µM, first compound 0.1 µM
[33] = second compound 10 µM, first compound 0.316 µM
[34] = second compound 10 µM, first compound 1 µM
[35] = second compound 10 µM, first compound 3.16 µM
[36] = second compound 10 µM, first compound 10 µM
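Note: spheroids exposed to the agents for seven days.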
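Throughout, for viability, T/C: percent of DMSO vehicle control viability which is 100%.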

C#Cc1c(F)ccc2cc(O)cc(-c3ncc4c(N5CC6CCC(C5)N6)nc(OCC56CCCN5CC(F)C6)nc4c3F)c12 (centres undefined) + CN(C)c1ccc(Nc2c3ccc(NC(=O)CCN4CCCC4)cc3nc3cc(NC(=O)CCN4CCCC4)ccc23)cc1
pIC50 (second compound 0.0316 µM): < 5.00 | pIC50 (second compound 0.1 µM): < 5.00 | pIC50 (second compound 0.316 µM): < 5.00 | pIC50 (second compound 1 µM): < 5.00 | pIC50 (second compound 3.16 µM): 5.36 | pIC50 (second compound 10 µM): > 7.50 | viability, T/C [1]: 108% | viability, T/C [2]: 90.5% | viability, T/C [3]: 86.9% | viability, T/C [4]: 91.9% | viability, T/C [5]: 78% | viability, T/C [6]: 66% | viability, T/C [7]: 101% | viability, T/C [8]: 97.8% | viability, T/C [9]: 91.5% | viability, T/C [10]: 96.7% | viability, T/C [11]: 81.5% | viability, T/C [12]: 65.3% | viability, T/C [13]: 94.6% | viability, T/C [14]: 101% | viability, T/C [15]: 86.8% | viability, T/C [16]: 82.3% | viability, T/C [17]: 71.9% | viability, T/C [18]: 68.1% | viability, T/C [19]: 97.5% | viability, T/C [20]: 96.5% | viability, T/C [21]: 87.2% | viability, T/C [22]: 85.9% | viability, T/C [23]: 70.6% | viability, T/C [24]: 54.9% | viability, T/C [25]: 81.9% | viability, T/C [26]: 86.3% | viability, T/C [27]: 81.6% | viability, T/C [28]: 66.3% | viability, T/C [29]: 62% | viability, T/C [30]: 28.1% | viability, T/C [31]: 32.5% | viability, T/C [32]: 29.2% | viability, T/C [33]: 23.3% | viability, T/C [34]: 23.6% | viability, T/C [35]: 16.1% | viability, T/C [36]: 5.22%

C=CCn1c(=O)c2cnc(Nc3ccc(N4CCN(C)CC4)cc3)nc2n1-c1cccc(C(C)(C)O)n1 + CN(C)c1ccc(Nc2c3ccc(NC(=O)CCN4CCCC4)cc3nc3cc(NC(=O)CCN4CCCC4)ccc23)cc1
pIC50 (second compound 0.0316 µM): 6.24 | pIC50 (second compound 0.1 µM): 6.16 | pIC50 (second compound 0.316 µM): 6.23 | pIC50 (second compound 1 µM): 6.19 | pIC50 (second compound 3.16 µM): 6.41 | pIC50 (second compound 10 µM): > 7.50 | viability, T/C [1]: 103% | viability, T/C [2]: 84.3% | viability, T/C [3]: 69.8% | viability, T/C [4]: 33.9% | viability, T/C [5]: 19.5% | viability, T/C [6]: 14.8% | viability, T/C [7]: 106% | viability, T/C [8]: 92.5% | viability, T/C [9]: 82.1% | viability, T/C [10]: 34.2% | viability, T/C [11]: 20.8% | viability, T/C [12]: 14.1% | viability, T/C [13]: 105% | viability, T/C [14]: 97% | viability, T/C [15]: 63.8% | viability, T/C [16]: 37.6% | viability, T/C [17]: 20.6% | viability, T/C [18]: 15.6% | viability, T/C [19]: 93.4% | viability, T/C [20]: 85% | viability, T/C [21]: 71% | viability, T/C [22]: 36.9% | viability, T/C [23]: 19.8% | viability, T/C [24]: 15.7% | viability, T/C [25]: 87.2% | viability, T/C [26]: 66.8% | viability, T/C [27]: 55.8% | viability, T/C [28]: 34.8% | viability, T/C [29]: 29.4% | viability, T/C [30]: 16.6% | viability, T/C [31]: 32.2% | viability, T/C [32]: 23.9% | viability, T/C [33]: 22.2% | viability, T/C [34]: 16.9% | viability, T/C [35]: 14.9% | viability, T/C [36]: 7.51%
